This note sets out measurements from US20100041892A1, “Therapeutic agent for diabetes” (priority 2005, published 2010).

As a reminder, the melting point is the temperature of the solid-liquid transition.

For `CCCCOc1cc(CCS(=O)(=O)NC(=O)OCC(C)(C)C)n(Cc2ccc(Cl)cc2Cl)n1` [Example 140, 2,2-dimethylpropyl ({2-[3-butoxy-1-(2,4-dichlorobenzyl)-1H-pyrazol-5-yl]ethyl}sulfonyl)carbamate], the melting point is 116 to 118 °C. Take `CC(C)CCS(=O)(=O)NC(=O)OCc1cc(OC(C)C)nn1Cc1ccc(Cl)cc1Cl` [Example 141, [1-(2,4-dichlorobenzyl)-3-isopropoxy-1H-pyrazol-5-yl]methyl [(3-methylbutyl)sulfonyl]carbamate]: the melting point was in the range of 104 to 107 °C. The same measure for `CCCCCS(=O)(=O)NC(=O)OCc1cc(OC(C)C)nn1Cc1ccc(Cl)cc1Cl` [Example 142, [1-(2,4-dichlorobenzyl)-3-isopropoxy-1H-pyrazol-5-yl]methyl (pentylsulfonyl)carbamate]: 126 to 128 °C; for `CCCCCS(=O)(=O)NC(=O)CCCc1cc(OCCCC)nn1Cc1ccc(Cl)cc1Cl` [Example 146, 4-[3-butoxy-1-(2,4-dichlorobenzyl)-1H-pyrazol-5-yl]-N-(pentylsulfonyl)butanamide]: 121 to 122 °C; for `CCCCCS(=O)(=O)NC(=O)CCCCc1cc(OCCCC)nn1Cc1ccc(Cl)cc1Cl` [Example 147, 5-[3-butoxy-1-(2,4-dichlorobenzyl)-1H-pyrazol-5-yl]-N-(pentylsulfonyl)pentanamide]: 91 to 93 °C. The result for `CC(C)Oc1cc(CCC(=O)NS(C)(=O)=O)n(Cc2ccc(Cl)cc2Cl)n1` [Example 148, 3-[1-(2,4-dichlorobenzyl)-3-isopropoxy-1H-pyrazol-5-yl]-N-(methylsulfonyl)propanamide] reads 104 to 105 °C; that for `CCCCCS(=O)(=O)NC(=O)/C=C/c1cc(OCCOC)nn1Cc1ccc(C(F)(F)F)cc1Cl` [Example 149, (2E)-3-[1-[2-chloro-4 (trifluoromethyl)benzyl]-3-(2-methoxyethoxy)-1H-pyrazol-5-yl]-N-(pentylsulfonyl)acrylamide], 130.5 to 132.5 °C. The compound `CCCCOc1cc(/C=C/C(=O)NS(=O)(=O)CCC(C)C)n(Cc2ccc(C(F)(F)F)cc2Cl)n1` [Example 150, (2E)-3-{3-butoxy-1-[2-chloro-4-(trifluoromethyl)benzyl]-1H-pyrazol-5-yl}-N-[(3-methylbutyl)sulfonyl]acrylamide] had a melting point of 89.5 to 90.5 °C. Consider `CC(C)CCS(=O)(=O)NC(=O)/C=C/c1cc(OC2CCOCC2)nn1Cc1ccc(C(F)(F)F)cc1Cl` [Example 153, (2E)-3-[1-[2-chloro-4-(trifluoromethyl)benzyl]-3-(tetrahydro-2H-pyran-4-yloxy)-1H-pyrazol-5-yl]-N-[(3-methylbutyl)sulfonyl]acrylamide], for which the melting point lay in the range of 149.5 to 152.5 °C. `CCCCCS(=O)(=O)NC(=O)/C=C/c1cc(OC2CCOCC2)nn1Cc1ccc(C(F)(F)F)cc1Cl` [Example 154, (2E)-3-[1-[2-chloro-4-(trifluoromethyl)benzyl]-3-(tetrahydro-2H-pyran-4-yloxy)-1H-pyrazol-5-yl]-N-(pentylsulfonyl)acrylamide]: the melting point lay within 160.5 to 161 °C. In turn, `CC(C)CCS(=O)(=O)NC(=O)CCc1cc(C2CC2)nn1Cc1ccc(C(F)(F)F)cc1Cl` [Example 157, 3-{1-[2-chloro-4-(trifluoromethyl)benzyl]-3-cyclopropyl-1H-pyrazol-5-yl}-N-[(3-methylbutyl)sulfonyl]propanamide] gave a melting point of 160.5 to 162.5 °C. Turning to `CCCCCS(=O)(=O)NC(=O)/C=C/c1ccc(OCCOC)cc1OCC1CCCCC1` [Example 158, (2E)-3-[2-(cyclohexylmethoxy)-4-(2-methoxyethoxy)phenyl]-N-(pentylsulfonyl)acrylamide], the melting point lay in the range of 97.5 to 98.3 °C. The result for `CCCCCS(=O)(=O)NC(=O)CCc1ccc(OCCOC)cc1OCC1CCCCC1` [Example 159, 3-[2-(cyclohexylmethoxy)-4-(2-methoxyethoxy)phenyl]-N-(pentylsulfonyl)propanamide] reads 81 to 82 °C; that for `CCCCCS(=O)(=O)NC(=O)/C=C/c1ccc(OCCOC)cc1OCC1CC1` [Example 160, (2E)-3-[2-(cyclopropylmethoxy)-4-(2-methoxyethoxy)phenyl]-N-(pentylsulfonyl)acrylamide], 64.8 to 66.3 °C; that for `CCCCCS(=O)(=O)NC(=O)CCc1ccc(OCCOC)cc1OC1CCCCC1` [Example 164, 3-[2-(cyclohexyloxy)-4-(2-methoxyethoxy)phenyl]-N-(pentylsulfonyl)propanamide], 64.1 to 65.4 °C. The same measure for `CCCCCS(=O)(=O)NC(=O)CCc1ccc(OCCOC)cc1OCC1CCCO1` (centres unmarked) [Example 166, 3-[4-(2-methoxyethoxy)-2-(tetrahydrofuran-2-ylmethoxy)phenyl]-N-(pentylsulfonyl)propanamide]: 57.8 to 58.9 °C; for `CCCCCS(=O)(=O)NC(=O)CCc1ccc(OCCOC)cc1OCC1CC1` [Example 167, 3-[2-(cyclopropylmethoxy)-4-(2-methoxyethoxy)phenyl]-N-(pentylsulfonyl)propanamide]: 81.7 to 82.8 °C; for `CCCCCS(=O)(=O)NC(=O)CCc1ccc(OCCOC)cc1OCc1ccc(Cl)cc1Cl` [Example 169, 3-[2-[(2,4-dichlorobenzyl)oxy]-4-(2-methoxyethoxy)phenyl]-N-(pentylsulfonyl)propanamide]: 106.7 to 108.2 °C. The same measure for `CCCCCS(=O)(=O)NC(=O)CCc1ccc(OCCOC)cc1Oc1ncc(Cl)cc1Cl` [Example 171, 3-[2-[(3,5-dichloropyridin-2-yl)oxy]-4-(2-methoxyethoxy)phenyl]-N-(pentylsulfonyl)propanamide]: 92.2 to 93.6 °C; for `CCCCCS(=O)(=O)NC(=O)/C=C/c1ccc(OCCOC)cc1Oc1cc(C(F)(F)F)ccc1[N+](=O)[O-]` [Example 174, (2E)-3-{4-(2-methoxyethoxy)-2-[2-nitro-5-(trifluoromethyl)phenoxy]phenyl}-N-(pentylsulfonyl)acrylamide]: 164.5 to 165.2 °C; for `CCCCCS(=O)(=O)NC(=O)/C=C/c1ccc(OCCOC)cc1Nc1ccc(C(F)(F)F)cc1` [Example 176, (2E)-3-(4-(2-methoxyethoxy)-2-{[4-(trifluoromethyl)phenyl]amino}phenyl)-N-(pentylsulfonyl)acrylamide]: 142.3 to 142.6 °C. For `CCCCCS(=O)(=O)NC(=O)/C=C/c1ccc(OCCOC)cc1Cc1ncc(Br)s1` [Example 178, (2E)-3-[2-[(5-bromo-1,3-thiazol-2-yl)methyl]-4-(2-methoxyethoxy)phenyl]-N-(pentylsulfonyl)acrylamide], the melting point lay in the range of 88.5 to 89.1 °C.

Compound `CCCCCS(=O)(=O)NC(=O)/C=C/c1ccc(OCCOC)cc1Nc1ccc(C(F)(F)F)cc1Cl` [Example 184, (2E)-3-[2-{[2-chloro-4-(trifluoromethyl)phenyl]amino}-4-(2-methoxyethoxy)phenyl]-N-(pentylsulfonyl)acrylamide] yielded a melting point of 173.5 to 174.8 °C.

In turn, `CCCCCS(=O)(=O)NC(=O)/C=C/c1ccc(OCCOC)cc1Oc1ncc([N+](=O)[O-])cc1C` [Example 185, (2E)-3-{4-(2-methoxyethoxy)-2-[(3-methyl-5-nitropyridin-2-yl)oxy]phenyl}-N-(pentylsulfonyl)acrylamide] came in with a melting point of 148 to 150.3 °C.

`CCCCCS(=O)(=O)NC(=O)/C(=C/c1ccc(OCCOC)cc1Oc1ncc(Cl)cc1Cl)CC` [Example 188, (2E)-2-[2-[(3,5-dichloropyridin-2-yl)oxy]-4-(2-methoxyethoxy)benzylidene]-N-(pentylsulfonyl)butanamide] gave a melting point of 118 to 118.4 °C. In turn, `CCCCCS(=O)(=O)NC(=O)/C=C/c1ccc(OCCOC)cc1NC(=O)c1ccc(Cl)cc1Cl` [Example 189, 2,4-dichloro-N-(5-(2-methoxyethoxy)-2-{(1E)-3-oxo-3-[(pentylsulfonyl)amino]prop-1-en-1-yl}phenyl)benzamide] showed a melting point of 176.8 to 177.1 °C. The same measure for `CCCCCS(=O)(=O)NC(=O)/C=C/c1ccc(OCCOC)cc1NC(=O)c1ccc(F)cc1F` [Example 191, 2,4-difluoro-N-(5-(2-methoxyethoxy)-2-{(1E)-3-oxo-3-[(pentylsulfonyl)-amino]prop-1-en-1-yl}phenyl)benzamide]: 140 to 140.8 °C. The same measure for `CCCCCS(=O)(=O)NC(=O)/C=C/c1ccc(OCCOC)cc1Oc1ncc(NC(=O)OC(C)(C)C)cc1C` [Example 192, tert-butyl [6-(5-(2-methoxyethoxy)-2-{(1E)-3-oxo-3-[(pentylsulfonyl)amino]prop-1-en-1-yl}phenoxy)-5-methylpyridin-3-yl]carbamate]: 149.5 to 150.2 °C; for `CCCCCS(=O)(=O)NC(=O)/C=C/c1ccc(OCCOC(C)=O)cc1Oc1ncc(C(F)(F)F)cc1Cl` [Example 194, 2-(3-{[3-chloro-5-(trifluoromethyl)pyridin-2-yl]oxy}-4-{(1E)-3-oxo-3-[(pentylsulfonyl)amino]prop-1-en-1-yl}phenoxy)ethyl acetate]: 141 to 144 °C. In the case of `CCCCCS(=O)(=O)NC(=O)/C=C/c1ccc(OCC2CCCO2)cc1Oc1ncc(C(F)(F)F)cc1Cl` (centres unmarked) [Example 195, (2E)-3-[2-{[3-chloro-5-(trifluoromethyl)pyridin-2-yl]oxy}-4-(tetrahydrofuran-2-ylmethoxy)phenyl]-N-(pentylsulfonyl)acrylamide], the melting point lay within 126.5 to 128.5 °C. The result for `COCOc1cc(/C=C/S(=O)(=O)NC(=O)OC(C)(C)C)n(Cc2ccc(Cl)cc2Cl)n1` [Example 200, tert-butyl-({(E)-2-[1-(2,4-dichlorobenzyl)-3-(methoxymethoxy)-1H-pyrazol-5-yl]vinyl}sulfonyl)carbamate] reads 139 to 140 °C; that for `COCCCS(=O)(=O)NC(=O)CCc1ccc(OC(C)C)cc1Oc1ncc(C(F)(F)F)cc1Cl` [Example 202, 3-(2-{[3-chloro-5-(trifluoromethyl)pyridin-2-yl]oxy}-4-isopropoxyphenyl)-N-[(3-methoxypropyl)sulfonyl]propanamide], 114 to 115 °C.
